Laboratory results taken from ChEMBL document CHEMBL5137051 (Eur J Med Chem, 2022).
The source made the active and inactive calls. The rule behind the calls is not given here.

How the values were obtained:
[1] = target: Epidermal growth factor receptor (Homo sapiens, UniProt P00533, C797S/L858R/T790M); experiment: Inhibition of EGFR L858R/T790M/C797S mutant (unknown origin) by mobility shift assay
NCI-H1975 [2] = experiment: Induction of cell cycle arrest in human H1975 cells assessed as number of cells at S phase at 12 uM after 24 hrs by flow cytometry (reference value: 25.41%); format: functional
NCI-H1975 [3] = experiment: Induction of apoptosis in human H1975 cells assessed as cell shrinkage after 48 hrs by AO/EB staining based fluorescent microscopic analysis; format: functional; settings: dose 0.1-10 µM, DDE = dose-dependent effect
NCI-H1975 [4] = experiment: Induction of cell cycle arrest in human H1975 cells assessed as number of cells at G2/M phase at 1.3 uM after 24 hrs by flow cytometry (reference value: 31.41%); format: functional
NCI-H1975 [5] = experiment: Induction of cell cycle arrest in human H1975 cells assessed as number of cells at S phase at 1.3 uM after 24 hrs by flow cytometry (reference value: 25.41%); format: functional
A549 [6] = experiment: Induction of apoptosis in human A549 cells assessed as chromatin condensation after 48 hrs by AO/EB staining based fluorescent microscopic analysis; format: functional, cell-based; settings: dose 0.1-10 µM, DDE = dose-dependent effect
NCI-H1975 [7] = experiment: Induction of cell cycle arrest in human H1975 cells assessed as number of cells at G2/M phase at 12 uM after 24 hrs by flow cytometry (reference value: 31.41%); format: functional
NCI-H1975 [8] = experiment: Induction of cell cycle arrest in human H1975 cells assessed as number of cells at G1/G0 phase at 12 uM after 24 hrs by flow cytometry (reference value: 43.18%); format: functional
A549 [9] = experiment: Induction of apoptosis in human A549 cells assessed as cell shrinkage after 48 hrs by AO/EB staining based fluorescent microscopic analysis; format: functional; settings: dose 0.1-10 µM, DDE = dose-dependent effect
NCI-H1975 [10] = experiment: Induction of apoptosis in human H1975 cells assessed as chromatin condensation after 48 hrs by AO/EB staining based fluorescent microscopic analysis; format: functional, cell-based; settings: dose 0.1-10 µM, DDE = dose-dependent effect
NCI-H1975 [11] = experiment: Induction of cell cycle arrest in human H1975 cells assessed as number of cells at G1/G0 phase at 4 uM after 24 hrs by flow cytometry (reference value: 43.18%); format: functional
[12] = target: Epidermal growth factor receptor (Homo sapiens, UniProt P00533, L858R/T790M); experiment: Inhibition of EGFR L858R/T790M mutant (unknown origin) by mobility shift assay
Chain of Epidermal growth factor receptor (Homo sapiens, UniProt P00533, L858R/T790M) (P00533 25-1210 T790M/L858R limits assumed): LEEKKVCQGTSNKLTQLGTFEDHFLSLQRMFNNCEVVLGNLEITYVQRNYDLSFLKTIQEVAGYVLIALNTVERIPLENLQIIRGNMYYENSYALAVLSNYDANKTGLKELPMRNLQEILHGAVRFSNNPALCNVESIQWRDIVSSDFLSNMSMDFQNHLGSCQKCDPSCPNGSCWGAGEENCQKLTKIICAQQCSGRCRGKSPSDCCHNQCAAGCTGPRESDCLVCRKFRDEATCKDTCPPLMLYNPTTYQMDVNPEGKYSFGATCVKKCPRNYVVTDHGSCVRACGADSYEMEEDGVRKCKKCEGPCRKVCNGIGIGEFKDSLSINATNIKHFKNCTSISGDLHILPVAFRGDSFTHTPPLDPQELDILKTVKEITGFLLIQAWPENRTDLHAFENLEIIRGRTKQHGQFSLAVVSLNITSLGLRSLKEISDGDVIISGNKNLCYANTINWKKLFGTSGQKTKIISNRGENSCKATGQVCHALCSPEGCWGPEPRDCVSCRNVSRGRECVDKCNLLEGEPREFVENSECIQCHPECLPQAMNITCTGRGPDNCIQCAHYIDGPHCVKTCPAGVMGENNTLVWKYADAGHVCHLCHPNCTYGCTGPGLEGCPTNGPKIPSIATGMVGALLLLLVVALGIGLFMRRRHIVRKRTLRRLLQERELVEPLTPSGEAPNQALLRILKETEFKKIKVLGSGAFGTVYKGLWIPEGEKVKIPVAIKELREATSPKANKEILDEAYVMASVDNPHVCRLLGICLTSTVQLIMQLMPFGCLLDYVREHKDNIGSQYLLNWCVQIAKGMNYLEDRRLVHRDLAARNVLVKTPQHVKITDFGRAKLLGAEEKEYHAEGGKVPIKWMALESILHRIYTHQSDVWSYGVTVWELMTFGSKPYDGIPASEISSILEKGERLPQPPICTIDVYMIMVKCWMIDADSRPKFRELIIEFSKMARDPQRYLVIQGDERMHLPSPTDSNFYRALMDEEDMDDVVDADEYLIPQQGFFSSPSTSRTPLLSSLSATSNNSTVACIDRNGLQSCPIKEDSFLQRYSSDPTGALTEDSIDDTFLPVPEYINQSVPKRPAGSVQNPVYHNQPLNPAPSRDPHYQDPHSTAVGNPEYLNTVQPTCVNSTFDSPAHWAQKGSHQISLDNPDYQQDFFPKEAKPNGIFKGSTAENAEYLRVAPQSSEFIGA

NCI-H1975 [13] = experiment: Induction of cell cycle arrest in human H1975 cells assessed as number of cells at S phase at 4 uM after 24 hrs by flow cytometry (reference value: 25.41%); format: functional
NCI-H1975 [14] = experiment: Inhibition of cell migration of human H1975 cells at 0.1 to 1 uM after 24 hrs by scratch wound healing assay; format: functional, cell-based; settings: dose 0.1-1 µM
A549 [15] = experiment: Inhibition of cell migration of human A549 cells at 0.1 to 1 uM after 24 hrs by scratch wound healing assay; format: functional, cell-based; settings: dose 0.1-1 µM
A549 [16] = experiment: Antiproliferative activity against human A549 cells assessed as cell viability after 72 hrs by MTT assay; format: functional, cell-based; settings: A549, 72 h
[17] = test system: Epidermal growth factor receptor (Homo sapiens), P00533 [L858R,T790M,C797S]; settings: dose 300.0 nM
Chain of Epidermal growth factor receptor (Homo sapiens), P00533 [L858R,T790M,C797S] (P00533 whole entry T790M/C797S/L858R): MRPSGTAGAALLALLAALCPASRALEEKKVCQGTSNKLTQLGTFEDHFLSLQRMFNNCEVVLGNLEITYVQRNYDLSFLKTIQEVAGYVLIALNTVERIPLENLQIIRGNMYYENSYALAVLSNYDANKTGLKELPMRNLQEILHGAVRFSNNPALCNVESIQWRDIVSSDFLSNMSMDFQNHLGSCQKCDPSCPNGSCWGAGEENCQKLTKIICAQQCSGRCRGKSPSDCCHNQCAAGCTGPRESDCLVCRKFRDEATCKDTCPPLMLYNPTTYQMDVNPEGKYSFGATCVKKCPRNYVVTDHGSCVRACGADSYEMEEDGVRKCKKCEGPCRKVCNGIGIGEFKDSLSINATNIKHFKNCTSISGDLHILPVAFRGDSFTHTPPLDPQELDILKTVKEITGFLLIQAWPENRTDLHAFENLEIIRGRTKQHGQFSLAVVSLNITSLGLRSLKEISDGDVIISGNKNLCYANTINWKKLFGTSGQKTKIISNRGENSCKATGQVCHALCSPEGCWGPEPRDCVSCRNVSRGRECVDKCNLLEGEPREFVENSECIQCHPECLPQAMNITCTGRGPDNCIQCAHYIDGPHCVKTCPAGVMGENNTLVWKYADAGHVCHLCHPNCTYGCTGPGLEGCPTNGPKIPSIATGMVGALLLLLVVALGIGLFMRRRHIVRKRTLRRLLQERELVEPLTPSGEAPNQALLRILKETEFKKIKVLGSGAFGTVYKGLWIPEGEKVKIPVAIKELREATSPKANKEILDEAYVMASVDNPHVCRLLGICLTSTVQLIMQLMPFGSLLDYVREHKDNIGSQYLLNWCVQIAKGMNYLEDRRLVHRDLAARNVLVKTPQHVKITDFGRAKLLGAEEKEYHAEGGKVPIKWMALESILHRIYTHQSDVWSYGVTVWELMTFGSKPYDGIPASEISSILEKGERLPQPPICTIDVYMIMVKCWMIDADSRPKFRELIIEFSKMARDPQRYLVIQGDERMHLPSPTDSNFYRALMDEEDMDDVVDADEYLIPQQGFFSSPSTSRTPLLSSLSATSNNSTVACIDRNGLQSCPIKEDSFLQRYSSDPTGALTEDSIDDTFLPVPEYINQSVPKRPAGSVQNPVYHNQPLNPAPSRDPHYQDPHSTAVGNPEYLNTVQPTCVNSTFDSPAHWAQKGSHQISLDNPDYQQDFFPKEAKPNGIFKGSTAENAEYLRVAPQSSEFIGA

NCI-H1975 [18] = experiment: Induction of cell cycle arrest in human H1975 cells assessed as number of cells at G1/G0 phase at 1.3 uM after 24 hrs by flow cytometry (reference value: 43.18%); format: functional
[19] = target: Epidermal growth factor receptor (Homo sapiens, UniProt P00533); experiment: Inhibition of wild type EGFR (unknown origin) by mobility shift assay
Chain of Epidermal growth factor receptor (Homo sapiens, UniProt P00533) (P00533 whole entry): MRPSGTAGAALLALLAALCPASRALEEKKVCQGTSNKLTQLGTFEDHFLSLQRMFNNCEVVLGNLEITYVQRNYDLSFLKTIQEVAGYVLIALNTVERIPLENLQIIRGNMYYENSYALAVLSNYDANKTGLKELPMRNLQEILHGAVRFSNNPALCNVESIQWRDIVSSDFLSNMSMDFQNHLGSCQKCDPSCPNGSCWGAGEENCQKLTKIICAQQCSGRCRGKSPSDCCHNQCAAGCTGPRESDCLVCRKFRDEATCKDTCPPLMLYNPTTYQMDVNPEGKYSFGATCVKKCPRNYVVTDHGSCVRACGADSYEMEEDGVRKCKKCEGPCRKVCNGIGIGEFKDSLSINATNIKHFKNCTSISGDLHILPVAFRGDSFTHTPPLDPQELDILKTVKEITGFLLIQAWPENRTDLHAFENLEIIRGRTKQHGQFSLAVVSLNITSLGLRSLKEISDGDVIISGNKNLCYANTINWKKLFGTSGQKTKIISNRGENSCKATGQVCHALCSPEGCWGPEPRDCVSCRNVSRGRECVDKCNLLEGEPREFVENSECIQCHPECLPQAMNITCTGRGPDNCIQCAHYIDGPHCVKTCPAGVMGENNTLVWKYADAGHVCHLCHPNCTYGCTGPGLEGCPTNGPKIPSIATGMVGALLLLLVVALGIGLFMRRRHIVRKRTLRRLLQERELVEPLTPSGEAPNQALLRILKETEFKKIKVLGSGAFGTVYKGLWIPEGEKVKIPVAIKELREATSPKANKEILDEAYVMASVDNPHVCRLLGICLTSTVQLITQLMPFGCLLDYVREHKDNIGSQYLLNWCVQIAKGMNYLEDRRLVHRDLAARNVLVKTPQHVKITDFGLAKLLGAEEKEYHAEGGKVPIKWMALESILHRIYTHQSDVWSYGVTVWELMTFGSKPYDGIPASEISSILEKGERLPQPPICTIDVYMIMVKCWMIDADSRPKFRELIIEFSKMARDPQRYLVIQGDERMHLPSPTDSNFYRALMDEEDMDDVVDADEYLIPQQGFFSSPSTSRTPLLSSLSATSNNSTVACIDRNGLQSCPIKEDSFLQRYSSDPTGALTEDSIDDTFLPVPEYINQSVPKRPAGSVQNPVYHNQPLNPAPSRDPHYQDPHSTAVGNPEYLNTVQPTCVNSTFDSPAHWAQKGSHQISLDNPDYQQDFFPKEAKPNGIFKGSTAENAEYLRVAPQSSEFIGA

[20] = target: Hepatocyte growth factor receptor (Homo sapiens, UniProt P08581); experiment: Inhibition of c-Met (unknown origin) by mobility shift assay
NCI-H1975 [21] = experiment: Induction of cell cycle arrest in human H1975 cells assessed as number of cells at G2/M phase at 4 uM after 24 hrs by flow cytometry (reference value: 31.41%); format: functional
NCI-H1975 [22] = experiment: Antiproliferative activity against human H1975 cells assessed as cell viability after 72 hrs by MTT assay; format: functional, cell-based; settings: NCI-H1975, 72 h

Chain of Epidermal growth factor receptor (Homo sapiens, UniProt P00533, C797S/L858R/T790M) (P00533 25-1210 T790M/C797S/L858R limits assumed): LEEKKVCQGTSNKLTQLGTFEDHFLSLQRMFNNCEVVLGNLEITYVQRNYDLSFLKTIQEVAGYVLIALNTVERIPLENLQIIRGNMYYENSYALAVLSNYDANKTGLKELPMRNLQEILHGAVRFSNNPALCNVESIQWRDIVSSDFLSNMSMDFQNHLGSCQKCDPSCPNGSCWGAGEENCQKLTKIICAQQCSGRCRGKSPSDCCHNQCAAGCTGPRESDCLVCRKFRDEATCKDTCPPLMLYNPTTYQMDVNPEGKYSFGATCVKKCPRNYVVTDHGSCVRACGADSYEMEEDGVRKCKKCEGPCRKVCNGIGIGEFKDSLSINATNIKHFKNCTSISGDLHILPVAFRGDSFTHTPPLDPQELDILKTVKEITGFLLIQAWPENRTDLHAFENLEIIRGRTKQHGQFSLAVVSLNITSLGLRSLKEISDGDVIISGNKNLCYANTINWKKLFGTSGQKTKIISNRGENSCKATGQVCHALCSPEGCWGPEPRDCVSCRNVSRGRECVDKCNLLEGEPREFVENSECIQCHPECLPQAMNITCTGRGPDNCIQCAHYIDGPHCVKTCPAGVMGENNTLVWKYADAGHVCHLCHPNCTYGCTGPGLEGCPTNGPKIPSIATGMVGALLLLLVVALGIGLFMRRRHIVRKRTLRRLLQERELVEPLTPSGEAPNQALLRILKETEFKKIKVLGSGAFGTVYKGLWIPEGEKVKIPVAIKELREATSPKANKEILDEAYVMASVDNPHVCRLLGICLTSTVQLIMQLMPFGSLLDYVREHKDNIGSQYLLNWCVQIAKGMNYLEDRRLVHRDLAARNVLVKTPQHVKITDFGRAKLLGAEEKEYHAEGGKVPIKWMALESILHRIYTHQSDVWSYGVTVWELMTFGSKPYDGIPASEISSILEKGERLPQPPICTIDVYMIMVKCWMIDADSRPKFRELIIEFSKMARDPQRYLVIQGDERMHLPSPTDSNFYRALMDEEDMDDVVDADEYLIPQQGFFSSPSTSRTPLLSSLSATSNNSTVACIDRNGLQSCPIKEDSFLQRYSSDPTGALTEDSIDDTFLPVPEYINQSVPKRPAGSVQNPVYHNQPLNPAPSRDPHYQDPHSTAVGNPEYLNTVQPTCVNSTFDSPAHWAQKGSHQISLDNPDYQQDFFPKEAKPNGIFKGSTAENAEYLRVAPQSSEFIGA

Question: `COc1cc(N(C)CCN(C)C)c(NC(=O)c2ccncn2)cc1Nc1nccc(-c2cn(C)c3ccccc23)n1` was tested. Which IC50 [1] did it give?
Answer: 242 nM

Question: What about the Activity (NCI-H1975 [2]) of the same compound?
Answer: 12.55%

Question: What about the Activity (NCI-H1975 [3]) of the same compound?
Answer: Dde

Question: And the Activity (NCI-H1975 [4])?
Answer: 31.18%

Question: And the Activity (NCI-H1975 [5])?
Answer: 22.67%

Question: And the Activity (A549 [6])?
Answer: Dde

Question: And the Activity (NCI-H1975 [7])?
Answer: 30.13%

Question: What about the Activity (NCI-H1975 [8]) of the same compound?
Answer: 57.32%

Question: What about the Activity (A549 [9]) of the same compound?
Answer: Dde

Question: What about the Activity (NCI-H1975 [10]) of the same compound?
Answer: Dde

Question: What about the Activity (NCI-H1975 [11]) of the same compound?
Answer: 50.62%

Question: And the IC50 [12]?
Answer: 10 nM

Question: And the Activity (NCI-H1975 [13])?
Answer: 18.36%

Question: What about the inhibition (NCI-H1975 [14]) of the same compound?
Answer: Active

Question: And the inhibition (A549 [15])?
Answer: Active

Question: And the IC50 (A549 [16])?
Answer: 2530 nM

Question: And the inhibition [17]?
Answer: 60.8%

Question: And the Activity (NCI-H1975 [18])?
Answer: 46.15%

Question: And the IC50 [19]?
Answer: 29 nM

Question: What about the IC50 [20] of the same compound?
Answer: > 1000 nM

Question: What about the Activity (NCI-H1975 [21]) of the same compound?
Answer: 31.02%

Question: What about the IC50 (NCI-H1975 [22]) of the same compound?
Answer: 1560 nM
